IC50 data for one compound are collected here from publication PMC3352823, “In Vitro and In Vivo Activity of a Palladacycle Complex on Leishmania (Leishmania) amazonensis” (PLoS Neglected Tropical Diseases, 2012).

This test deals with T1, L. (L.) amazonensis cathepsin B.
T1 construct: gene CPC; native enzyme in amastigote lysate (hamster lesion amastigotes), not purified; activity defined by cathepsin B substrate and CA074
The format is biochemical, Leishmania amazonensis. Conditions: substrate Abz-Gly-Ile-Val-Arg-Ala-Lys(Dnp)-OH 10 µM; pH 5.0, 37 °C, 2 mM DTT.

As a reminder, the IC50 is the concentration needed to halve the response being measured. A lower IC50 goes with higher potency.

In turn, `CCCNC(=O)[C@H]1O[C@@H]1C(=O)N[C@H](C(=O)N1CCC[C@H]1C(=O)O)[C@@H](C)CC` [CA074] came in with a concentration for half-maximal inhibition (IC50) of 700 ± 80 nM.
